Measurements: patent US9617281B2, “Imidazo[2,1-b]thiazole derivatives, their preparation and use as medicaments” (LABORATORIOS DEL DR. ESTEVE S.A., priority 2012, dated 2017)
Where a name gives a salt, the structure may show the parent alone.

Target: σ1-receptor (Cavia porcellus (Guinea pig), UniProt Q60492)
Assay: σ1-receptor binding assay with [3H]-(+)-pentazocine in guinea pig brain membranes
Settings: radioligand [3H]-(+)-pentazocine 5.0 nM, 150 min at 37° C.
Experimental: Brain membrane preparation and binding assays for the σ1-receptor were performed as described (DeHaven-Hudkins, D. L., L. C. Fleissner, and F. Y. Ford-Rice, 1992, Characterization of the binding of [^3H](+)pentazocine to a recognition sites in guinea pig brain, Eur. J. Pharmacol. 227, 371-378) with some modifications. Guinea pig brains were homogenized in 10 vols. (w/v) of Tris-HCl 50 mM 0.32 M sucrose, pH 7.4, with a Kinematica Polytron PT 3000 at 15000 r.p.m. for 30 s. The homogenate was centrifuged at 1000 g for 10 min at 4° C. and the supernatants collected and centrifuged again at 48000 g for 15 min at 4° C. The pellet was resuspended in 10 volumes of Tris-HCl buffer (50 mM, pH 7.4), incubated at 37° C. for 30 min, and centrifuged at 48000 g for 20 min at 4° C. Following this, the pellet was re-suspended in fresh Tris-HCl buffer (50 mM, pH 7.4) and stored on ice until use.
The radioligand used was [^3H]-(+)-pentazocine at 5.0 nM and the final volume was 200 μl. The incubation was initiated with the addition of 100 μl of membrane at a final tissue concentration of approximately 5 mg tissue net weight/mL and the incubation time was 150 m. at 37° C. After incubation, the membranes were collected onto pretreated glass fiber filterplate (MultiScreen-FC, Millipore), with polyethylenimine 0.1%. The filters were washed two times with 200 μl of washing buffer (50 mM Tris Cl, pH=7.4) and then 25 μl of Ecoscint H liquid scintillation cocktail were added. Microplates were allowed to set for several hours and then quantified by liquid scintillation spectrophotometry (1450 Microbeta, Wallac). Nonspecific binding was determined with 1 μM haloperidol.

Sequence of σ1-receptor (Q60492 whole entry): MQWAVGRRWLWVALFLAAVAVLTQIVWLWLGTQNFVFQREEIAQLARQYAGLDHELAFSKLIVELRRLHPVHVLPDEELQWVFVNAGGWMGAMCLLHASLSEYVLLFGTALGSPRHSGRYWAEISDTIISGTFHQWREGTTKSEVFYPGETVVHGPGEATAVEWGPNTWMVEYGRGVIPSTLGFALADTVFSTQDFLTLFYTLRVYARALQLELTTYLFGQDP

Compound	Ki
c1ccc(-c2nn3cc(COCCN4CCCCCC4)nc3s2)cc1 [Compound 4, 6-((2-(azepan-1-yl)ethoxy)methyl)-2-phenylimidazo[2,1-b][1,3,4]thiadiazole maleate]	168 nM
c1ccc(-c2cn3cc(CN4CCCCCC4)nc3s2)cc1 [Compound 6, 6-(azepan-1-ylmethyl)-2-phenylimidazo[2,1-b]thiazole maleate]	16 nM
CN1CCN(Cc2cn3cc(-c4ccccc4)sc3n2)CC1 [Compound 7, 6-((4-methylpiperazin-1-yl)methyl)-2-phenylimidazo[2,1-b]thiazole maleate]	56 nM
c1ccc(-c2cn3cc(COCCN4CCCCCC4)nc3s2)cc1 [Compound 9, 6-((2-(azepan-1-yl)ethoxy)methyl)-2-phenylimidazo[2,1-b]thiazole maleate]	40 nM
c1ccc(-c2cn3cc(COCCN4CCCC4)nc3s2)cc1 [Compound 10, 2-phenyl-6-((2-(pyrrolidin-1-yl)ethoxy)methyl)imidazo[2,1-b]thiazole maleate]	190 nM
CN1CCN(Cc2cn3nc(-c4ccccc4)sc3n2)CC1 [Compound 11, 6-((4-methylpiperazin-1-yl)methyl)-2-phenylimidazo[2,1-b][1,3,4]thiadiazole maleate]	260 nM
c1ccc(-c2cn3cc(CN4CCCCCC4)sc3n2)cc1 [Compound 12, 2-(azepan-1-ylmethyl)-6-phenylimidazo[2,1-b]thiazole maleate]	100 nM
CN1CCN(Cc2cn3cc(-c4ccc(F)cc4)sc3n2)CC1 [Compound 13, 2-(4-fluorophenyl)-6-((4-methylpiperazin-1-yl)methyl)imidazo[2,1-b]thiazole maleate]	210 nM
